{
  "source": "ChEMBL document CHEMBL1201862",
  "about": "“PubChem BioAssay data set” (2004)",
  "experiment_in_all_cases": "inhibition of tumour cell growth, NCI panel, 48 h",
  "key": {"[1]": {"tested_on": "SN12C"}, "[2]": {"tested_on": "COLO 205"}, "[3]": {"tested_on": "KM12"}, "[4]": {"tested_on": "MOLT-4"}, "[5]": {"tested_on": "BT-549"}, "[6]": {"tested_on": "PC-3"}, "[7]": {"tested_on": "MDA-MB-435"}, "[8]": {"tested_on": "LOX IMVI"}, "[9]": {"tested_on": "Malme-3M"}, "[10]": {"tested_on": "SF-295"}, "[11]": {"tested_on": "OVCAR-3"}, "[12]": {"tested_on": "NCI-H226"}, "[13]": {"tested_on": "ACHN"}, "[14]": {"tested_on": "Hs-578T"}, "[15]": {"tested_on": "SK-OV-3"}, "[16]": {"tested_on": "U-251"}, "[17]": {"tested_on": "HCT-116"}, "[18]": {"tested_on": "RXF 393"}, "[19]": {"tested_on": "SK-MEL-5"}, "[20]": {"tested_on": "MDA-MB-231"}, "[21]": {"tested_on": "HOP-92"}, "[22]": {"tested_on": "SW-620"}, "[23]": {"tested_on": "SR"}, "[24]": {"tested_on": "SK-MEL-2"}, "[25]": {"tested_on": "HCC 2998"}, "[26]": {"tested_on": "HT-29"}, "[27]": {"tested_on": "TK-10"}, "[28]": {"tested_on": "MDA-N"}, "[29]": {"tested_on": "SK-MEL-28"}, "[30]": {"tested_on": "HL-60"}, "[31]": {"tested_on": "SNB-19"}, "[32]": {"tested_on": "UACC-62"}, "[33]": {"tested_on": "OVCAR-5"}, "[34]": {"tested_on": "NCI-H522"}, "[35]": {"tested_on": "MCF7"}, "[36]": {"tested_on": "A498"}, "[37]": {"tested_on": "UACC-257"}, "[38]": {"tested_on": "OVCAR-8"}, "[39]": {"tested_on": "SF-268"}, "[40]": {"tested_on": "DU-145"}, "[41]": {"tested_on": "SF-539"}, "[42]": {"tested_on": "UO-31"}, "[43]": {"tested_on": "786-0"}, "[44]": {"tested_on": "IGROV-1"}, "[45]": {"tested_on": "EKVX"}, "[46]": {"tested_on": "A549"}, "[47]": {"tested_on": "NCI-H460"}, "[48]": {"tested_on": "NCI/ADR-RES"}, "[49]": {"tested_on": "CCRF-CEM"}, "[50]": {"tested_on": "SNB-75"}, "[51]": {"tested_on": "T47D"}, "[52]": {"tested_on": "NCI-H23"}, "[53]": {"tested_on": "OVCAR-4"}, "[54]": {"tested_on": "HOP-62"}, "[55]": {"tested_on": "CAKI-1"}, "[56]": {"tested_on": "HCT-15"}},
  "note": "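Five compound concentrations were applied to cells in 96-well plates for 48 hours; endpoints were derived by simple linear interpolation of the resulting dose-response curve. The concentration for 50% growth inhibition is given as GI50.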 Activity calls are given as the source filed them. Cut-off read from the data, not from the text of the source: active = GI50 up to about 1.1 µM and inactive = higher.",
  "data": [
    {"smiles": "CN(C)CC1CCC/C(=C\\c2ccccc2)C1=O", "note": "(stereo unspecified)", "values": [
      {"measurement": "GI50", "setting": "[1]", "result": "6140 nM (inactive)"},
      {"measurement": "GI50", "setting": "[2]", "result": "2240 nM (inactive)"},
      {"measurement": "GI50", "setting": "[3]", "result": "1190 nM (inactive)"},
      {"measurement": "GI50", "setting": "[4]", "result": "4600 nM (inactive)"},
      {"measurement": "GI50", "setting": "[5]", "result": "7690 nM (inactive)"},
      {"measurement": "GI50", "setting": "[6]", "result": "8490 nM (inactive)"},
      {"measurement": "GI50", "setting": "[7]", "result": "1780 nM (inactive)"},
      {"measurement": "GI50", "setting": "[8]", "result": "1690 nM (inactive)"},
      {"measurement": "GI50", "setting": "[9]", "result": "1850 nM (inactive)"},
      {"measurement": "GI50", "setting": "[10]", "result": "19500 nM (inactive)"},
      {"measurement": "GI50", "setting": "[11]", "result": "1940 nM (inactive)"},
      {"measurement": "GI50", "setting": "[12]", "result": "2820 nM (inactive)"},
      {"measurement": "GI50", "setting": "[13]", "result": "3500 nM (inactive)"},
      {"measurement": "GI50", "setting": "[14]", "result": "2770 nM (inactive)"},
      {"measurement": "GI50", "setting": "[15]", "result": "19800 nM (inactive)"},
      {"measurement": "GI50", "setting": "[16]", "result": "15400 nM (inactive)"},
      {"measurement": "GI50", "setting": "[17]", "result": "1560 nM (inactive)"},
      {"measurement": "GI50", "setting": "[18]", "result": "2840 nM (inactive)"},
      {"measurement": "GI50", "setting": "[19]", "result": "8790 nM (inactive)"},
      {"measurement": "GI50", "setting": "[20]", "result": "1980 nM (inactive)"},
      {"measurement": "GI50", "setting": "[21]", "result": "2440 nM (inactive)"},
      {"measurement": "GI50", "setting": "[22]", "result": "1550 nM (inactive)"},
      {"measurement": "GI50", "setting": "[23]", "result": "944 nM (active)"},
      {"measurement": "GI50", "setting": "[24]", "result": "5500 nM (inactive)"},
      {"measurement": "GI50", "setting": "[25]", "result": "15500 nM (inactive)"},
      {"measurement": "GI50", "setting": "[26]", "result": "1750 nM (inactive)"},
      {"measurement": "GI50", "setting": "[27]", "result": "2360 nM (inactive)"},
      {"measurement": "GI50", "setting": "[28]", "result": "2990 nM (inactive)"},
      {"measurement": "GI50", "setting": "[29]", "result": "2230 nM (inactive)"},
      {"measurement": "GI50", "setting": "[30]", "result": "512 nM (active)"},
      {"measurement": "GI50", "setting": "[31]", "result": "16200 nM (inactive)"},
      {"measurement": "GI50", "setting": "[32]", "result": "7010 nM (inactive)"},
      {"measurement": "GI50", "setting": "[33]", "result": "15600 nM (inactive)"},
      {"measurement": "GI50", "setting": "[34]", "result": "1570 nM (inactive)"},
      {"measurement": "GI50", "setting": "[35]", "result": "575 nM (active)"},
      {"measurement": "GI50", "setting": "[36]", "result": "17400 nM (inactive)"},
      {"measurement": "GI50", "setting": "[37]", "result": "2550 nM (inactive)"},
      {"measurement": "GI50", "setting": "[38]", "result": "3940 nM (inactive)"},
      {"measurement": "GI50", "setting": "[39]", "result": "2940 nM (inactive)"},
      {"measurement": "GI50", "setting": "[40]", "result": "15300 nM (inactive)"},
      {"measurement": "GI50", "setting": "[41]", "result": "4040 nM (inactive)"},
      {"measurement": "GI50", "setting": "[42]", "result": "2320 nM (inactive)"},
      {"measurement": "GI50", "setting": "[43]", "result": "2650 nM (inactive)"},
      {"measurement": "GI50", "setting": "[44]", "result": "3740 nM (inactive)"},
      {"measurement": "GI50", "setting": "[45]", "result": "17900 nM (inactive)"},
      {"measurement": "GI50", "setting": "[46]", "result": "19000 nM (inactive)"},
      {"measurement": "GI50", "setting": "[47]", "result": "3100 nM (inactive)"},
      {"measurement": "GI50", "setting": "[48]", "result": "10800 nM (inactive)"},
      {"measurement": "GI50", "setting": "[49]", "result": "959 nM (active)"},
      {"measurement": "GI50", "setting": "[50]", "result": "13800 nM (inactive)"},
      {"measurement": "GI50", "setting": "[51]", "result": "2120 nM (inactive)"},
      {"measurement": "GI50", "setting": "[52]", "result": "10200 nM (inactive)"},
      {"measurement": "GI50", "setting": "[53]", "result": "1600 nM (inactive)"},
      {"measurement": "GI50", "setting": "[54]", "result": "19900 nM (inactive)"},
      {"measurement": "GI50", "setting": "[55]", "result": "1770 nM (inactive)"},
      {"measurement": "GI50", "setting": "[56]", "result": 2140, "unit": "nM"}
    ]}
  ]
}
